Results published in patent US20230210888A1, “PHOTOTHERANOSTIC NANOAGENTS WITH EXCELLENT ATHEROSCLEROTIC PLAQUE-TARGETING AND PLAQUE-PENETRATING PROPERTIES, AND USE THEREOF” (Korea University Research and Business Foundation, priority 2021, published 2023).

How the values were obtained:
[1] = Singlet oxygen generation (SOSG fluorescence) under 670 nm laser; assay type: physicochemical; details: PBS with 1% Tween 20, 5 μM based on Ce6, 670 nm 50 mW/cm2, 0-120 s
Protocol: All three solutions contained 1 μM SOSG. The fluorescence intensity of SOSG (Ex(excitation)/Em(emission): 504 nm/525 nm) was measured by irradiating a laser (670 nm, 50 mW/cm^2) every 30 seconds from 0 to 120 seconds.

[2] = Skin phototoxicity after intravenous injection and 670 nm laser; assay type: in vivo, Balb/c mice; details: 2 mg/kg (equiv. of Ce6) iv, 670 nm 50 mW/cm2 5 min 1 h after injection; 2nd and 3rd days
Protocol: One hour after injection, a near-infrared (670 nm) laser (50 mW/cm^2) was irradiated for 5 minutes.

(17S,18S)-18-(2-carboxyethyl)-20-(carboxymethyl)-12-ethenyl-7-ethyl-3,8,13,17-tetramethyl-17,18,22,23-tetrahydroporphyrin-2-carboxylic acid [Ce6]
SOSG fluorescence intensity (singlet oxygen generation) [1]: tendency to increase similarly to each other
skin phototoxicity (erythema) [2]: erythema occurred
